Laboratory results taken from patent publication US8497133B1, “Terpene media compositions for eluting compounds from matrices and methods for making and using them” (Medtronic MiniMed, Inc., priority 2009, dated 2013).
Read-outs that look alike come from different tables or passages of the source.

Experiments:
[1] = format: physicochemical
Experimental: To evaluate buffers with different pH, Dexamethasone sodium phosphate can be dissolved in an elution media (e.g. one of the different embodiments of the invention disclosed herein). […] This concentration was about 10 times the concentration that might be observed if the drug from the typical device was completely eluted in about 75 mL of media.

[2] = cited from earlier work
[3] = Elution of steroid from drug eluting leads/electrodes in conventional media (PBS without additives); format: physicochemical; conditions: conventional media systems, e.g. media with just a surfactant; result in words
Source text: The percent elution was less than 7% in 10 days from the controlled-release device (CRD) leads when PBS ([…]) without any additives was used.

| stability with respect to pH (order) [1] | elution in conventional media/solvents [3] | Structure (SMILES) | solubility in water ([2]; result in words, listed as dexamethasone sodium phosphate) | solubility in water ([2]; result in words) | solubility in water [2] |
| --- | --- | --- | --- | --- | --- |
| pH 4>pH 7.5>pH 9 | minimal | C[C@@H]1C[C@H]2[C@@H]3CCC4=CC(=O)C=C[C@]4(C)[C@@]3(F)[C@@H](O)C[C@]2(C)[C@@]1(O)C(=O)COP(=O)(O)O [Dexamethasone sodium phosphate] | water soluble | freely soluble |  |
|  |  | OCc1ccccc1 [Benzyl alcohol, Phenylmethanol] |  |  | 4 g/100 mL |
